{"source": "patent US20250009743A1", "about": "“METHODS OF TREATING CANCERS USING STING AGONISTS” (Dana-Farber Cancer Institute, Inc., priority 2021, published 2025)", "key": {"bone marrow-derived DCs": {"test_system": "bone marrow-derived DCs", "test": "STING pathway activation in DCs co-cultured with BP tumor cells", "format": "cell-based, mouse", "protocol": "For flow cytometry analyses of tumor and TDLN samples, single-cell suspensions were obtained as described above (Tissue Digestion). Cells were stained in cold FACS buffer (PBS containing 0.2% BSA and 5 mM EDTA) with LIVE/DEAD Fixable Aqua Dead Cell Stain (Thermo Fisher) for 30 min on ice, followed by blocking with anti-CD16/32 (BioLegend) for 20 min on ice. Cells were then incubated in FACS buffer for 30 min on ice with antibodies specific to CD45 (clone 30-F11, BioLegend), TCR β chain (clone H57-597, BioLegend), CD38 (clone 145-2C11, BioLegend), CD4 (clone RM4-5, BioLegend), CD8a (clone 53-6.7, BioLegend), PD-1 (clone 29F.1A12, BioLegend), CD44 (clone IM7, BioLegend), CD62L (clone MEL-14, BioLegend), IFN-γ (clone XMG1.2, BioLegend), TNF-α (clone MP6-XT22, BioLegend), Granzyme B (clone NGZB, eBioscience), CD11c (clone N418, BioLegend), I-A/I-E (clone M5/114.15.2, BioLegend), CD80 (clone 16-10A1, BioLegend), CD86 (clone GL-1, BioLegend), CD103 (clone 2E7, BioLegend), CD11b (M1/70, BioLegend), F4/80 (clone BM8, BioLegend), phospho-TBK1 (Ser172) (clone D52C2, Cell Signaling Tech.) or phospho-IRF-3 (Ser396) (clone D601M, Cell Signaling Tech.). For intracellular staining, Foxp3/Transcription Factor Staining Buffer Set (eBioscience, #00-5523-00) was used for fixation and permeabilization. […] All data were analyzed using FlowJo software. […]"}, "[1]": {"test_system": "mouse bone marrow-derived macrophages (BMDMs)", "test": "Polarization of mouse BMDMs / tumor cell-educated macrophages (flow cytometry, RNA-seq, morphology)", "format": "cell-based", "protocol": "Mouse macrophages and dendritic cells (DCs) were derived from the bone marrow (BM) of FVB/NJ mice by modifying protocols described in (Weischenfeldt J, Porse B. CSH Protoc 2008; Guo X, et al. J Immunol Methods 2016; 432:24-9). For generation of BM-derived macrophages (BMDMs), BM cells were seeded on ultra-low attachment plates (Corning) or petri dishes (Falcon) and cultured in DMEM supplemented with 10 ng/ml M-CSF (BioLegend, #576404), 10% FBS and 100 μg/mL penicillin-streptomycin. Fresh DMEM with 10 ng/ml M-CSF was added after 3 days, and cells were incubated for another 4 days before harvesting adherent cells (BMDMs). For DC differentiation, BM cells were seeded on tissue culture dishes (Corning) and cultured in RPMI 1640 supplemented with 20 ng/mL GM-CSF (Stem Cell Technologies, #78017), 10% FBS and 100 μg/mL penicillin-streptomycin. Fresh RPMI 1640 with 20 ng/mL GM13 CSF was added after 3 days, and non-adherent cells (DCs) were harvested after another 4 days. For preparation of tumor cell-conditioned media (CM), tumor cells were grown to 60% of confluence, washed twice with PBS, and then incubated with fresh DMEM for two days. CM were then harvested and centrifuged to collect the supernatant.\nFor flow cytometry analyses of tumor and TDLN samples, single-cell suspensions were obtained as described above (Tissue Digestion). Cells were stained in cold FACS buffer (PBS containing 0.2% BSA and 5 mM EDTA) with LIVE/DEAD Fixable Aqua Dead Cell Stain (Thermo Fisher) for 30 min on ice, followed by blocking with anti-CD16/32 (BioLegend) for 20 min on ice. Cells were then incubated in FACS buffer for 30 min on ice with antibodies specific to CD45 (clone 30-F11, BioLegend), TCR β chain (clone H57-597, BioLegend), CD38 (clone 145-2C11, BioLegend), CD4 (clone RM4-5, BioLegend), CD8a (clone 53-6.7, BioLegend), PD-1 (clone 29F.1A12, BioLegend), CD44 (clone IM7, BioLegend), CD62L (clone MEL-14, BioLegend), IFN-γ (clone XMG1.2, BioLegend), TNF-α (clone MP6-XT22, BioLegend), Granzyme B (clone NGZB, eBioscience), CD11c (clone N418, BioLegend), I-A/I-E (clone M5/114.15.2, BioLegend), CD80 (clone 16-10A1, BioLegend), CD86 (clone GL-1, BioLegend), CD103 (clone 2E7, BioLegend), CD11b (M1/70, BioLegend), F4/80 (clone BM8, BioLegend), phospho-TBK1 (Ser172) (clone D52C2, Cell Signaling Tech.) or phospho-IRF-3 (Ser396) (clone D601M, Cell Signaling Tech.). For intracellular staining, Foxp3/Transcription Factor Staining Buffer Set (eBioscience, #00-5523-00) was used for fixation and permeabilization. For cytokine analysis, cells were stimulated with Leukocyte Activation Cocktail with protein transport inhibitor Brefeldin A (BD Biosciences, #550583) at 37° C. for 4 hours prior to the staining. Analysis of ϵ-HA2X (Ser139) was performed according to manufacturer's instructions. Briefly, ice-cold 70% ethanol (Decon) was added dropwise to the cell pellet while vortexing. Cells were then incubated at −20° C. for 1 hour and washed three times with cold staining buffer. For the staining, 5 μL p-HA2X antibody (clone 2F3, BioLegend) was added to approximately 1×10^6 cells in 100 μL staining buffer and incubated at 4° C. for 30 min. For Annexin V and 7-AAD staining, cells were detached with accutase (Sigma, #A6964). The detached cells (from culture medium and accutase treatment) were washed twice with cold PBS, and then incubated with 5 μL FITC Annexin V (BioLegend, #640906) and 10 μL 7-AAD (BioLegend, #420404) in 100 μL Annexin V binding buffer (BioLegend, #422201) at room temperature for 15 min. Flow cytometry was performed on an LSR Fortessa HTS analyzer (BD Biosciences). All data were analyzed using FlowJo software.\nFor in vitro co-culture of tumor cells with macrophages, 2×10^5 tumor cells per well were co-cultured with macrophages at a ratio of 1:1 (BP cells: mouse BMDMs) or 1:1.5 (MDA-MB-436 cells: THP-1 macrophages) in 6-well plates with indicated drug treatments or DMSO vehicle control for two days. […]"}, "[2]": {"test_system": "BMDMs generated from FVB/NJ mice", "test": "Polarization of mouse BMDMs cultured in PBM / PBM-R conditioned medium", "format": "cell-based", "protocol": "For ex vivo culture of mouse macrophages, bone marrow cells were isolated from FVB/NJ mice and cultured in DMEM containing 10% FBS, 55 μM 2-Mercaptoethanol and 20 ng/ml M-CSF. BMDMs (bone marrow derived macrophages) were harvested on day 7 and further cultured in 2.0 ml control medium (90% DMEM, 10% FBS, 55 μM 2-Mercaptoethanol and 5 ng/ml M-CSF) described above or the medium containing 50% tumor cell conditioned medium for 72 hrs before analysis. For the tumor cell conditioned medium, about 3×10^5 tumor cells were cultured in 6-well plate for 24 hrs and then treated with DMSO or olaparib. After 24 hrs incubation with DMSO or olaparib, the tumor cells were washed twice with PBS and cultured in DMEM containing 10% FBS for 48 hrs. The tumor cell conditioned medium was collected by centrifugation at 1,500 g for 5 min at 4° C. to remove all the debris and cells. For the cytokine blocking experiment, monoclonal antibodies that specific to each cytokine were added to the tumor cell conditioned medium before it was applied to culture macrophages."}, "[3]": {"conditions": "BMDMs with BP-CM or BP/OL-CM, DMXAA 0.05 mg/mL, 24 hours, FIG. 7A"}}}
{"smiles": "Cc1ccc2c(=O)c3cccc(CC(=O)O)c3oc2c1C", "note": "[DMXAA, 5,6-dimethyl-xanthenone-4-acetic acid]", "values": [{"measurement": "activation of STING pathway in co-cultured DCs", "setting": "bone marrow-derived DCs; BP cells treated with CM of DMXAA-pre-treated TEMs, then olaparib, FIG. 7I", "value": "restored"}, {"measurement": "CD86 expression of STING−/− TEMs", "setting": "[1]; BMDMs from STING knockout mice, DMXAA 2 days, FIG. 7F", "value": "failed to increase"}, {"measurement": "macrophage morphology", "setting": "[1]; BMDMs incubated with BP-CM, DMXAA 0.05 mg/mL, 24 hours, FIG. 8B", "value": "changed these cells to a “fried egg” shape"}, {"measurement": "expression of genes of anti-tumorigenic M1 signature", "setting": "[1]; [3]", "value": "strongly stimulated"}, {"measurement": "expression of pro-tumorigenic M2 genes", "setting": "[1]; [3]", "value": "suppressed"}, {"measurement": "M1-like to M2-like ratio of TEMs", "setting": "[1]; BP TEMs, DMXAA 0.05 mg/mL, two days, FIG. 7C", "value": "reversed TEMs to M1-like macrophages"}, {"measurement": "TEM STING pathway activation (p-TBK1+p-IRF3+)", "setting": "[1]; BP TEMs, DMXAA 24 hours, FIG. 7D", "value": "significantly increased"}]}
{"smiles": "COc1cc2cc(C(=O)CCC(=O)O)sc2cc1OC", "note": "[MSA-2]", "values": [{"measurement": "M1/M2 ratio", "setting": "[2]; BMDMs in 50% PBM-R-CM, ADU-S100 10 μM or MSA-2 5 ug/ml, two days, FIG. 21B", "value": "significantly increased"}]}
{"smiles": "O=C(c1cc(Cc2n[nH]c(=O)c3ccccc23)ccc1F)N1CCN(C(=O)C2CC2)CC1", "note": "[olaparib]", "values": [{"measurement": "STING pathway activation (p-TBK1+ p-IRF3+) in DCs", "setting": "bone marrow-derived DCs; DCs co-cultured 24 hours with olaparib-treated BP cells, FIG. 5I", "value": "activated the STING pathway in DCs"}, {"measurement": "M2-like TAM polarization of BMDMs by CM from olaparib-treated PBM cells (PBM-OLA-CM)", "setting": "[2]; FIG. 19E", "value": "stronger effect on M2-like TAM polarization of BMDMs than PBM-CM"}, {"measurement": "gene expression of BMDMs (RNA-seq)", "setting": "[1]; olaparib 5 μM, 24 hours, FIG. 3C", "value": "no significant direct effects"}, {"measurement": "macrophage polarization (M1-like / M2-like)", "setting": "[1]; olaparib alone, two days, FIG. 3B", "value": "little effect"}]}
